Reference: US11672843B2, “Somatostatin receptor agonist formulations” (CAMURUS AB, priority 2012, dated 2023)
Where a name gives a salt, the structure may show the parent alone. Blank lines part the entries; values can stand above or below the compound they belong to. *1 amine or outer side, *2 acyl side, *3 side chain or, on linkers, in order; H or OH if unused. Where a SMILES comes first, the peptide text is derived from it. Side-chain parts run from the residue outwards. [ ]: non-standard residue; d: D form. The star is where a group is joined. Ethylenediamine = C(CN[*:2])N[*:1]; Hyp = O=C(O)[C@@H]1C[C@@H](O)CN1; Phg = N[C@H](C(=O)O)c1ccccc1; CO = O=C([*:1])[*:2]; Bn = c1ccc(C*)cc1

Assays:
[1] = cited from earlier work
[2] = Solubility screening of SOM230 in lipid formulations (visual inspection); assay type: physicochemical
Description: Placebo lipid mixture formulations as well as formulations of the single respective lipid alone were prepared in 1 OR vials according to Table 1. The sample size was 6 g. […] The samples were allowed to equilibrate at ambient room temperature; samples with formulation types 1-8 on end-over-end rotation and samples with formulation types 9-12 on magnetic stirring. The flow chart in FIG. 1 describes the sample preparation process. The screening covered the following formulation variables: • Lipid weight ratio (SPC/GDO weight ratio) • Co-solvent nature and concentration • Single lipid formulations • Single solvent (only PG) The samples were studied by visual inspection and the appearance was noted. […] Mixing at ambient room temperature and visual observation continued after addition of more SOM230 drug powder.

[3] = Stability comparison of SOM230 salt forms in lipid formulations, HPLC; assay type: physicochemical; details: storage for 2 weeks at 60° C.; ca 30 mg/mL free base
Description: The lipid/SOM230(Pm), lipid/SOM230(Cl) and lipid/SOM230(Ac) formulations were divided into two 2R vials which were placed at 60° C. and the remaining amount from the preparation was assayed by HPLC (time point zero).
The samples stored at 60° C. were pulled out after 2 weeks of storage for visual inspection and HPLC analysis.

[4] = tested on: SSTR2 and SSTR5; details: cited from earlier work
[5] = in vivo; cited from earlier work

Compound: NCCCC[C@@H]1NC(=O)[C@@H](Cc2c[nH]c3ccccc23)NC(=O)[C@H](c2ccccc2)NC(=O)[C@@H]2C[C@@H](OC(=O)NCCN)CN2C(=O)[C@H](Cc2ccccc2)NC(=O)[C@H](Cc2ccc(OCc3ccccc3)cc2)NC1=O [Pasireotide] (cyclo([Hyp]([CO-Ethylenediamine])[Phg][dW]KY(Bn)F); ring closure inferred)
Half-life ([1]; biological half-life): 2 to 3 h
Initial half-life following the peak ([1]; human, single subcutaneous dose): 2 to 3 h
Solubility of SOM230 in EtOH ([2]; ethanol): < 1 wt %
Solubility of SOM230 in PG ([2]; propylene glycol only): > 1 wt %

Stability of salt form in the lipid formulations (HPLC) [3]: most stable salt form
Compound: Pasireotide pamoate [SOM230 pamoate]

Compound: NCCCC[C@@H]1NC(=O)[C@@H](Cc2c[nH]c3ccccc23)NC(=O)[C@H](c2ccccc2)NC(=O)[C@@H]2C[C@@H](OC(=O)NCCN)CN2C(=O)[C@H](Cc2ccccc2)NC(=O)[C@H](Cc2ccc(OCc3ccccc3)cc2)NC1=O [SOM230 hydrochloride] (cyclo([Hyp]([CO-Ethylenediamine])[Phg][dW]KY(Bn)F))
Stability of salt form in the lipid formulations (HPLC) [3]: more stable than the acetate salt but not as stable as the pamoate salt

Compound: C[C@@H](O)[C@@H]1NC(=O)[C@H](CCCCN)NC(=O)[C@@H](Cc2c[nH]c3ccccc23)NC(=O)[C@H](Cc2ccccc2)NC(=O)[C@@H](NC(=O)[C@H](N)Cc2ccccc2)CSSC[C@@H](C(=O)N[C@H](CO)[C@@H](C)O)NC1=O [Octreotide, D-Phe-Cys-Phe-D-Trp-Lys-Thr-Cys-Thr-ol (2-7 disulphide bridge)]
Selectivity for somatostatin receptors [4]: high selectivity
Terminal half-life [5]: around 1.7 hours
